# Experimental data taken from patent US7265120B2, “Pyrazine derivatives and pharmaceutical use thereof” (Astellas Pharma Inc., priority 2004, dated 2007).
row,SMILES,melting point [°C]
1,"CC(C)n1nc(-c2nc(-c3cnn(C)c3)c(N)nc2-c2ccccc2)ccc1=O [Example 93, 6-[5-amino-6-(1-methyl-1H-pyrazol-4-yl)-3-phenyl-2-pyrazinyl]-2-isopropyl-3(2H)-pyridazinone]",201 to 203
2,"CC(C)n1nc(-c2nc(N)c(C(N)=O)nc2-c2ccccc2)ccc1=O [Example 29, 3-Amino-5-(1-isopropyl-6-oxo-1,6-dihydro-3-pyridazinyl)-6-phenyl-2-pyrazinecarboxamide]",217 to 220
3,"COc1ccc(CNc2nc(-c3ccccc3)c(-c3ccc(=O)n(C)n3)nc2C#N)cc1 [Example 16, 3-[(4-Methoxybenzyl)amino]-6-(1-methyl-6-oxo-1,6-dihydro-3-pyridazinyl)-5-phenyl-2-pyrazinecarbonitrile]",166.5 to 168
4,"COC(=O)c1nc(-c2ccc(=O)n(C(C)C)n2)c(-c2ccccc2)nc1OC [Example 24, Methyl 6-(1-isopropyl-6-oxo-1,6-dihydro-3-pyridazinyl)-3-methoxy-5-phenyl-2-pyrazinecarboxylate]",170 to 171
5,"CCCCNc1nc(-c2ccc(=O)n(C)n2)c(-c2ccccc2)nc1N [Example 100, 6-[5-amino-6-(butylamino)-3-phenyl-2-pyrazinyl]-2-methyl-3(2H)-pyridazinone]",253 to 255
6,"CCn1nc(-c2nc(C#N)c(N)nc2-c2ccccc2)ccc1=O [Example 13, 3-Amino-6-(1-ethyl-6-oxo-1,6-dihydro-3-pyridazinyl)-5-phenyl-2-pyrazinecarbonitrile]",> 250
7,"COCCNc1nc(-c2ccc(=O)n(C(C)C)n2)c(-c2ccccc2)nc1N [Example 102, 6-{5-amino-6-[(2-methoxyethyl)amino]-3-phenyl-2-pyrazinyl}-2-isopropyl-3(2H)-pyridazinone]",208 to 209.5
8,"CC(C)n1nc(-c2nc(-c3ccco3)c(N)nc2-c2ccccc2)ccc1=O [Example 88, 6-[5-amino-6-(2-furyl)-3-phenyl-2-pyrazinyl]-2-isopropyl-3(2H)-pyridazinone]",211 to 213
9,"CC(C)n1nc(-c2nc(NC3CCCCC3)c(N)nc2-c2ccccc2)ccc1=O [Example 137, 6-[5-amino-6-(cyclohexylamino)-3-phenyl-2-pyrazinyl]-2-isopropyl-3(2H)-pyridazinone]",227 to 228.5
10,"Cn1nc(-c2ncc(N)nc2-c2ccccc2)ccc1=O [Example 20, 6-(5-Amino-3-phenyl-2-pyrazinyl)-2-methyl-3(2H)-pyridazinone]",202 to 204

# Results, then the molecule that gave them:
row,melting point [°C],SMILES
1,118 to 120,"CC(C)n1nc(-c2nc(OCc3ccccc3)c(N)nc2-c2ccccc2)ccc1=O [Example 162, 6-[5-amino-6-(benzyloxy)-3-phenyl-2-pyrazinyl]-2-isopropyl-3(2H)-pyridazinone]"
2,147 to 149,"Cn1nc(-c2nc(OC3CCN(Cc4ccccc4)CC3)c(N)nc2-c2ccccc2)ccc1=O [Example 185, 6-{5-amino-6-[(1-benzyl-4-piperidinyl)oxy]-3-phenyl-2-pyrazinyl}-2-methyl-3(2H)-pyridazinone]"
3,> 250,"Cn1nc(-c2nc(-n3cnc4ccccc43)c(N)nc2-c2ccccc2)ccc1=O [Example 156, 6-[5-amino-6-(1H-benzimidazol-1-yl)-3-phenyl-2-pyrazinyl]-2-methyl-3(2H)-pyridazinone]"
4,> 250,"COc1ccc(CNc2nc(-c3ccc(=O)n(C)n3)c(-c3ccccc3)nc2N)cc1 [Example 145, 6-[5-amino-6-[(4-methoxybenzyl)amino]-3-phenyl-2-pyrazinyl}-2-methyl-3(2H)-pyridazinone]"
5,240 to 241.5,"CC(C)n1nc(-c2nc(-n3cncn3)c(N)nc2-c2ccccc2)ccc1=O [Example 151, 6-[5-amino-3-phenyl-6-(1H-1,2,4-triazol-1-yl)-2-pyrazinyl]-2-isopropyl-3(2H)-pyridazinone]"
